The target in assay [1] is hPDE10A2 (Homo sapiens, UniProt Q9Y233). Briefly: biochemical. Particulars: for IC50: 60 nM cAMP substrate, read-out: hPDE10A2 pIC50 (converted); for Emax: read-out: hPDE10A2 Emax. The procedure:
Rat recombinant PDE10A (rPDE10A2) was expressed in Sf9 cells using a recombinant rPDE10A baculovirus construct. Cells were harvested after 48 h of infection and the rPDE10A protein was purified by metal chelate chromatography on Ni-sepharose 6FF. Tested compounds were dissolved and diluted in 100% DMSO to a concentration 100 fold of the final concentration in the assay. Human recombinant PDE10A […] was expressed in Sf9 cells using a recombinant hPDE10A baculovirus that was made and amplified in house. Cells were harvested after 72 h of infection and the hPDE10A protein was purified by metal chelate chromatography on Ni-sepharose. Compound dilutions (0.4 μl) were added in 384 well plates to 20 μl of incubation buffer (50 mM Tris pH 7.8, 8.3 mM MgCl2, 1.7 mM EGTA). […] of rPDE10A or hPDE10A enzyme in incubation buffer was added and the reaction was started by addition of 10 μl substrate to a final concentration of 60 nM cAMP and 0.008 μCi ^3H-cAMP. The reaction was incubated for 60 minutes at room temperature. […] After sedimentation of the beads during 30 minutes the radioactivity was measured in a Perkin Elmer Topcount scintillation counter and results were expressed as cpm. For blanc values the enzyme was omitted from the reaction and replaced by incubation buffer. Control values were obtained by addition of a final concentration of 1% DMSO instead of compound.

In assay [2] the target is T1, PDE2A (Rattus norvegicus, UniProt Q01062).
T1 construct: from tissue; host or cells: rat brain striatal sections (ex vivo)
T1 sequence (Q01062 1-928): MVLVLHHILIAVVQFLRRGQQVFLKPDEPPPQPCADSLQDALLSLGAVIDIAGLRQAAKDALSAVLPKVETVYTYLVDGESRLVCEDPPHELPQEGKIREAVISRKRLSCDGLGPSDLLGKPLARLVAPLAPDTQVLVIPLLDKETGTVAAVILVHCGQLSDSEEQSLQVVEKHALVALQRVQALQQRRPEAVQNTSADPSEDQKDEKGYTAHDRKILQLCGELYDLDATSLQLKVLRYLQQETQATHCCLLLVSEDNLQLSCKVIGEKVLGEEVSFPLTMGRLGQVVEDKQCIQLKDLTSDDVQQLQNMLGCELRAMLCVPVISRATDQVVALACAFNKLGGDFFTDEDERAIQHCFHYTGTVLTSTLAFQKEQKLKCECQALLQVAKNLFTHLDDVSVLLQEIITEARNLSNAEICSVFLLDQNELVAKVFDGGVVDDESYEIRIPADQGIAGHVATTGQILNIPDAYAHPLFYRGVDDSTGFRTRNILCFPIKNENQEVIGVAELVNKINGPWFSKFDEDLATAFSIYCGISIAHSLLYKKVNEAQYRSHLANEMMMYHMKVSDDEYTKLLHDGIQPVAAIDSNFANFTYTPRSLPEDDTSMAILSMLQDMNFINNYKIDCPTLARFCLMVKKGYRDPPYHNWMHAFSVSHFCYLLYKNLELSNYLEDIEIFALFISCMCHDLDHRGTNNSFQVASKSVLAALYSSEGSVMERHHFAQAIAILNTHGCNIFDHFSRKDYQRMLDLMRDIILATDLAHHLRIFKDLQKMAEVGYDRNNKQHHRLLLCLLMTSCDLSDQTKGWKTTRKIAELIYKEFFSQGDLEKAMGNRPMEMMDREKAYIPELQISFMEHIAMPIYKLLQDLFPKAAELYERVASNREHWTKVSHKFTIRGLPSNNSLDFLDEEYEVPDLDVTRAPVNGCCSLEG
In words: PDE2 occupancy by ex-vivo autoradiography with [3H]B-17a. Particulars: rat; for ED50: read-out: PDE occupancy ED50, route PO (oral), male Wistar rats, dose producing 50% occupancy. The assay is classed as in vivo. The method, then: PDE2 Occupancy by Test Compounds Methods
Brains were immediately removed from the skull and rapidly frozen in dry-ice cooled 2-methylbutane (−40° C.).
After thawing, sections were dried under a cold stream of air and incubated for one minute with 30 nM [^3H]B-17a in Tris-HCl (50 mM, pH7.4) containing 0.3% BSA. Brain sections from drug-treated and vehicle-treated animals were incubated in parallel. […] After incubation, the excess of [^3H]B-17a was washed off in ice-cold buffer 2 times 10 minutes, followed by a quick dip in distilled water. The sections were then dried under a stream of cold air.
Brain sections were loaded in a β-imager (Biospace, Paris) for 4 h and radioactivity emerging from delineated brain area was quantified using the Beta vision program (Biospace, Paris). Specific binding was determined as the difference between total binding in the striatum and non-specific binding in the cerebellum. Percentage receptor occupancy of the drug administered to the animal corresponded to 100% minus the percentage receptor labeled in the treated animal. For the determination of ED50-values, the percentage of receptor occupancy was plotted against dose and the sigmoidal log dose-effect curve of best fit was calculated by non-linear regression analysis, using the GraphPad Prism program.

In assay [3] the test system is hPDE3B. Briefly: In vitro assay PDE3 (SPA, 3H-cAMP). The assay is classed as biochemical, human. Set-up: hPDE3B Emax: unit not given here. Particulars: for hPDE3B pIC50: 0.4 μM cAMP substrate.
The target in assay [4] is T2, hPDE2A (Homo sapiens, UniProt O00408).
T2 construct: made in house; host or cells: Sf9 insect cells (baculovirus)
T2 sequence (O00408 whole entry): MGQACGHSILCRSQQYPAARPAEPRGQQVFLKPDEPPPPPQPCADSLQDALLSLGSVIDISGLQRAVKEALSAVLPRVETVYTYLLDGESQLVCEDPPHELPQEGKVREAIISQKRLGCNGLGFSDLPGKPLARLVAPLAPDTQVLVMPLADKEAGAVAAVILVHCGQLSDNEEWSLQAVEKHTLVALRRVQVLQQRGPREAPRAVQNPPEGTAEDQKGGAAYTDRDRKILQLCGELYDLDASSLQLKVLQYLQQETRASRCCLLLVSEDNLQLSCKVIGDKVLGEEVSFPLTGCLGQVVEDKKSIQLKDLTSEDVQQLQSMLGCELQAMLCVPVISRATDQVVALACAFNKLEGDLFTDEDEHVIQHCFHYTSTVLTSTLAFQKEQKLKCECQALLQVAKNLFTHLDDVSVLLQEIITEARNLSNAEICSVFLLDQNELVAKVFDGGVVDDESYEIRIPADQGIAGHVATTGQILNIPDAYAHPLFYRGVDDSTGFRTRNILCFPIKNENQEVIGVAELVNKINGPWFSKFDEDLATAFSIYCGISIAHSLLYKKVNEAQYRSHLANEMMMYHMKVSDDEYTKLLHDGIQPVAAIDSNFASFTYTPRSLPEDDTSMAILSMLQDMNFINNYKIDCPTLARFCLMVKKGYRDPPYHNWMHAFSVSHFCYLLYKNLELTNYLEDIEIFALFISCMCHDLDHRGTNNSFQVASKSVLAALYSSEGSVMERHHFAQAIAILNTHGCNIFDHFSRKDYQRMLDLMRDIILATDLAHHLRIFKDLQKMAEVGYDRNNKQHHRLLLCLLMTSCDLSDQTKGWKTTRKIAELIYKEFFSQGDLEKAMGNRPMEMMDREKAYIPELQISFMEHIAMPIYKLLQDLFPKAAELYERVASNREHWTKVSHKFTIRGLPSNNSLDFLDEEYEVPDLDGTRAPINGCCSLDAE
Briefly: In vitro assay PDE2A (SPA, 3H-cGMP). Conditions: for Emax: read-out: hPDE2A Emax. It counts as biochemical. The method, then: Human recombinant PDE2A (hPDE2A) was expressed in Sf9 cells using a recombinant rPDE10A baculovirus construct. Cells were harvested after 48 h of infection and the hPDE2A protein was purified by metal chelate chromatography on Ni-sepharose 6FF. Tested compounds were dissolved and diluted in 100% DMSO to a concentration 100 fold of the final concentration in the assay. Compound dilutions (0.4 μl) were added in 384 well plates to 20 μl of incubation buffer (50 mM Tris pH 7.8, 8.3 mM MgCl2, 1.7 mM EGTA). 10 μl of hPDE2A enzyme in incubation buffer was added and the reaction was started by addition of 10 μl substrate to a final concentration of 10 μM cGMP and 0.01 μCi ^3H-cGMP. The reaction was incubated for 45 minutes at room temperature. […] After sedimentation of the beads during 30 minutes the radioactivity was measured in a Perkin Elmer Topcount scintillation counter and results were expressed as cpm. For blanc values the enzyme was omitted from the reaction and replaced by incubation buffer. Control values were obtained by addition of a final concentration of 1% DMSO instead of compound.

Where [5] appears, read: route PO (oral), 10 mg/kg, male Wistar rats, striatum, percentage occupancy, read-out: PDE2 occupancy at 10 mg/kg.
The mark [6] stands for this setting: po, read-out: PDE2 occupancy at 10 mg/kg, route PO (oral), 10 mg/kg, male Wistar rats, striatum, percentage occupancy.
The mark [7] stands for this setting: route SC (subcutaneous), 10 mg/kg, male Wistar rats, striatum, percentage occupancy, read-out: PDE2 occupancy at 10 mg/kg.
Where [8] appears, read: po, read-out: PDE2 occupancy at 10 mg/kg.
Where [9] appears, read: sc, read-out: PDE2 occupancy at 10 mg/kg, route SC (subcutaneous), 10 mg/kg, male Wistar rats, striatum, percentage occupancy.

Like-named read-outs stand apart in the source and are kept apart here.

Consider 13 compounds from patent US11053248B2, “[1,2,4]triazolo[1,5-a]pyrimidine compounds as PDE2 inhibitors” (Janssen Pharmaceutica NV, priority 2016, dated 2021).

Chain of hPDE10A2 (Q9Y233 267-1055): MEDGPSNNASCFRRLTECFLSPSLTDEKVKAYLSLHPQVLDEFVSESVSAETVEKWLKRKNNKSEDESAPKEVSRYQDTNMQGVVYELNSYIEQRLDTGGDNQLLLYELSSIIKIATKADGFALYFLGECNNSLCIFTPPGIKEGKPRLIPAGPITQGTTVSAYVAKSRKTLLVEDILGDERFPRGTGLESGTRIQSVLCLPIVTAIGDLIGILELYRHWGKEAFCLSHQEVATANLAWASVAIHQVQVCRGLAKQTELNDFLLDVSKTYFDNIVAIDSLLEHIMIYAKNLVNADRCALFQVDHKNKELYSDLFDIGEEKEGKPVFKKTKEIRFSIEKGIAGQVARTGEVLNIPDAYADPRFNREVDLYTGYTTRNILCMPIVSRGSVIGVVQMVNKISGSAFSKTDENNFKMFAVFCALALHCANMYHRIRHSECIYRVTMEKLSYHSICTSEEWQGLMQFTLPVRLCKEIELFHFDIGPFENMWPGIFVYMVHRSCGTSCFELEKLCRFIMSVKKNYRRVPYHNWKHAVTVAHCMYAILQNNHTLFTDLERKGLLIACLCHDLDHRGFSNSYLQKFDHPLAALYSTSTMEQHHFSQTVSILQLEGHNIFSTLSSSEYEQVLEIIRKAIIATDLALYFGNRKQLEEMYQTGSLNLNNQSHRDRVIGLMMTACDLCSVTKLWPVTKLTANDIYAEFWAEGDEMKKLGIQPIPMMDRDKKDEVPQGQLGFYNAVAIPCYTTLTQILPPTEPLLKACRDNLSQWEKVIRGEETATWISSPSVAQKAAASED

In general, Emax refers to the maximal effect, on the per cent scale that the assay sets. Consider `C[C@@H]1CCN(c2cc(C#N)ccn2)C[C@H]1c1cc(C(F)F)nc2ncnn12` [Compound 22], for which, in assay [1], the IC50 is 1.15 µM and the Emax was found to be 90%. Also, in assay [2] (setting [5]), the receptor occupancy at 10 mg/kg is 0%. Besides, in assay [3], the “hPDE3B Emax” value was found to be 82 and the “hPDE3B pIC50” value amounted to 5.5. For the same compound, in assay [4], the IC50 is 0.0676 µM and the Emax turned out to be 100%.
What is called ED50 is the dose at which the effect has come halfway, by size or by number of responders. Regarding `Cc1cc([C@@H]2CN(c3nccc4ccc(Br)cc34)CC[C@H]2C)n2ncnc2n1` [Compound 2], in assay [1], the IC50 is 0.0741 µM and the Emax turned out to be 102%. Besides, in assay [2] (setting [6]), the receptor occupancy at 10 mg/kg was determined as 96%. Moreover, in assay [2] (po), the 50% effective dose (ED50) was 2.6 mg/kg. In assay [3], the “hPDE3B Emax” value is reported as 89 and the “hPDE3B pIC50” value was determined as 5.45. Besides, in assay [4], the IC50 was 0.00107 µM and the maximum response (Emax) was found to be 100%.
For `C[C@@H]1CCN(c2cc(N3CCOCC3)ccn2)C[C@H]1c1cc(C(F)F)nc2ncnn12` [Compound 27], in assay [1], the IC50 is 2.63 µM and the Emax is 80%. Also, the receptor occupancy at 10 mg/kg in assay [2] (setting [7]) was found to be 0%. Moreover, in assay [3], the “hPDE3B Emax” value is recorded as 48 and the “hPDE3B pIC50” value amounted to 5.07. In assay [4], the IC50 was 0.107 µM and the Emax was 100%.
In the case of `C[C@@H]1CCN(c2ccc(C#N)cn2)C[C@H]1c1cc(C(F)F)nc2ncnn12` [Compound 35], in assay [1], the IC50 was 1.38 µM and the Emax worked out at 85%. The receptor occupancy at 10 mg/kg in assay [2] (setting [8]) stood at 0%. In assay [3], the “hPDE3B Emax” value worked out at 31 and the “hPDE3B pIC50” value is less than 5. In assay [4], the IC50 was 0.162 µM and the maximum response (Emax) was 99%.
Consider `C[C@@H]1CCN(c2nccc3ccccc23)C[C@H]1c1cc(C(F)F)nc2ncnn12` [Compound 7], for which, in assay [1], the IC50 is 0.617 µM and the maximum response (Emax) was determined as 98%. The 50% effective dose (ED50) in assay [2] (po) was determined as 29 mg/kg. Moreover, the receptor occupancy at 10 mg/kg in assay [2] (setting [9]) was 81%. In assay [3], the “hPDE3B Emax” value is 69 and the “hPDE3B pIC50” value stood at 5.22. Besides, in assay [4], the IC50 was 0.0107 µM and the Emax was 101%.
Regarding `COc1cccc2c(N3CC[C@@H](C)[C@H](c4cc(C(F)F)nc5ncnn45)C3)nccc12.Cl` [Compound 10], in assay [1], the IC50 was 0.49 µM and the maximal response (Emax) amounted to 100%. The 50% effective dose (ED50) in assay [2] (po) turned out to be 20 mg/kg. For the same compound, the receptor occupancy at 10 mg/kg in assay [2] (setting [9]) was found to be 53%. For the same compound, in assay [3], the “hPDE3B Emax” value came to 84 and the “hPDE3B pIC50” value is given as 5.53. Further, in assay [4], the IC50 is 0.0129 µM and the maximal response (Emax) was found to be 99%.
In the case of `C[C@@H]1CCN(c2nccc3ccc(O)cc23)C[C@H]1c1cc(C(F)F)nc2ncnn12` [Compound 18], in assay [1], the IC50 was 0.331 µM and the Emax is 97%. In addition, in assay [2] (setting [9]), the receptor occupancy at 10 mg/kg is -6%. Moreover, in assay [3], the “hPDE3B Emax” value is 65 and the “hPDE3B pIC50” value amounted to 5.14. In addition, the IC50 in assay [4] (10 μM cGMP substrate, read-out: hPDE2A pIC50 (converted)) was 0.0251 µM. Besides, the Emax in assay [4] stood at 101%.
For `C[C@@H]1CCN(c2ccnc3ccccc23)C[C@H]1c1cc(C(F)F)nc2ncnn12` [Compound 42], in assay [1], the IC50 is 1.23 µM and the Emax was determined as 91%. Besides, the receptor occupancy at 10 mg/kg in assay [2] (setting [8]) was -8%. Also, in assay [3], the “hPDE3B Emax” value is reported as 70 and the “hPDE3B pIC50” value came out at 5.27. In assay [4], the IC50 is 0.0204 µM and the Emax is 99%.
`C[C@@H]1CCN(c2ncc(Cl)c3ccccc23)C[C@H]1c1cc(C(F)F)nc2ncnn12` [Compound 6]: in assay [1], the IC50 is 0.417 µM and the Emax is 101%. Moreover, the receptor occupancy at 10 mg/kg in assay [2] (setting [6]) turned out to be 3%. Further, in assay [3], the “hPDE3B Emax” value worked out at 67 and the “hPDE3B pIC50” value is recorded as 5.21. For the same compound, in assay [4], the IC50 was 0.00891 µM and the Emax is 99%.
In the case of `Cc1ccc(C#N)c(N2CC[C@@H](C)[C@H](c3cc(C(F)F)nc4ncnn34)C2)n1` [Compound 17], in assay [1], the IC50 is 0.102 µM and the Emax was found to be 97%. Moreover, the receptor occupancy at 10 mg/kg in assay [2] (setting [5]) was -18%. For the same compound, in assay [3], the “hPDE3B Emax” value came out at 66 and the “hPDE3B pIC50” value stood at 5.15. Moreover, in assay [4], the IC50 was 0.0195 µM and the Emax was found to be 100%.
As for `Cc1cccc2ccnc(N3CC[C@@H](C)C(c4cc(C(F)F)nc5ncnn45)C3)c12` (stereo partly shown) [Compound 41], in assay [1], the IC50 is 4.68 µM and the Emax was 76%. Besides, the receptor occupancy at 10 mg/kg in assay [2] (setting [7]) was -8%. Besides, in assay [3], the “hPDE3B Emax” value was 65 and the “hPDE3B pIC50” value worked out at 5.14. Also, in assay [4], the IC50 was 0.309 µM and the Emax came to 99%.
In the case of `C[C@@H]1CCN(c2nccc3[nH]ccc23)C[C@H]1c1cc(C(F)F)nc2ncnn12` [Compound 9], in assay [1], the IC50 was 0.708 µM and the Emax is 92%. Besides, the receptor occupancy at 10 mg/kg in assay [2] (setting [9]) is 36%. In assay [3], the “hPDE3B Emax” value was found to be 60 and the “hPDE3B pIC50” value was determined as 5.13. In assay [4], the IC50 is 0.0126 µM and the Emax was 101%.
In the case of `C[C@@H]1CCN(c2ncnc3ccccc23)C[C@H]1c1cc(C(F)F)nc2ncnn12` [Compound 12], in assay [1], the IC50 was 0.646 µM and the Emax was found to be 96%. For the same compound, the receptor occupancy at 10 mg/kg in assay [2] (setting [8]) was found to be 1%. In addition, in assay [3], the “hPDE3B Emax” value was found to be 67 and the “hPDE3B pIC50” value turned out to be 5.25. In assay [4], the IC50 was 0.0145 µM and the Emax is 100%.
